Data: ChEMBL document CHEMBL1201862, “PubChem BioAssay data set” (2004)
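Protocol summary: plate cells (96-well), add compound at 5 concentrations, incubate 48 h, interpolate endpoints linearly. Abbreviation: GI50, concentration required for 50% inhibition of growth.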 The source made the active and inactive calls. Cut-off read from the data, not from the text of the source: active = GI50 up to about 1.1 µM and inactive = higher.

Key:
Assay in all cases: NCI anticancer screen, dose series, 48 h
[1] = tested on: SF-295
[2] = tested on: K562
[3] = tested on: RXF 393
[4] = tested on: LXFL 529
[5] = tested on: RXF 631
[6] = tested on: SF-539
[7] = tested on: CCRF-CEM
[8] = tested on: MOLT-4
[9] = tested on: SK-MEL-2
[10] = tested on: SNB-75
[11] = tested on: NCI-H460
[12] = tested on: LOX IMVI
[13] = tested on: A549
[14] = tested on: DMS-273
[15] = tested on: NCI-H522
[16] = tested on: ACHN
[17] = tested on: SNB-78
[18] = tested on: IGROV-1
[19] = tested on: UACC-62
[20] = tested on: U-251
[21] = tested on: HOP-18
[22] = tested on: OVCAR-8
[23] = tested on: CAKI-1
[24] = tested on: SK-MEL-28
[25] = tested on: OVCAR-5
[26] = tested on: HOP-92
[27] = tested on: SNB-19
[28] = tested on: RPMI-8226
[29] = tested on: UACC-257
[30] = tested on: EKVX
[31] = tested on: SW-620
[32] = tested on: HOP-62
[33] = tested on: M14
[34] = tested on: SK-OV-3
[35] = tested on: NCI-H23
[36] = tested on: A498
[37] = tested on: SN12C
[38] = tested on: 786-0
[39] = tested on: HL-60
[40] = tested on: SF-268
[41] = tested on: HCT-15
[42] = tested on: DLD-1
[43] = tested on: OVCAR-3
[44] = tested on: DMS-114
[45] = tested on: M19-MEL
[46] = tested on: KM12
[47] = tested on: Malme-3M
[48] = tested on: HT-29
[49] = tested on: KM-20L2
[50] = tested on: SK-MEL-5
[51] = tested on: COLO 205
[52] = tested on: OVCAR-4
[53] = tested on: UO-31
[54] = tested on: TK-10
[55] = tested on: HCT-116
[56] = tested on: SR
[57] = tested on: HCC 2998

SMILES: N=C(N)NS(=O)(=O)c1ccc(NC(=O)c2ccc(Cl)c3c(Nc4ccc(S(=O)(=O)N=C(N)N)cc4)c4ccccc4nc23)cc1
- GI50 [1]: > 100 µM (inactive)
- GI50 [2]: 38.1 µM (inactive)
- GI50 [3]: > 100 µM (inactive)
- GI50 [4]: 52.8 µM (inactive)
- GI50 [5]: > 100 µM (inactive)
- GI50 [6]: 53.7 µM (inactive)
- GI50 [7]: 43.1 µM (inactive)
- GI50 [8]: > 100 µM (inactive)
- GI50 [9]: 39.5 µM (inactive)
- GI50 [10]: 24.5 µM (inactive)
- GI50 [11]: > 100 µM (inactive)
- GI50 [12]: 50.9 µM (inactive)
- GI50 [13]: > 100 µM (inactive)
- GI50 [14]: > 100 µM (inactive)
- GI50 [15]: 38.2 µM (inactive)
- GI50 [16]: 95.5 µM (inactive)
- GI50 [17]: 45 µM (inactive)
- GI50 [18]: 76.4 µM (inactive)
- GI50 [19]: 37.5 µM (inactive)
- GI50 [20]: 76.7 µM (inactive)
- GI50 [21]: 68.1 µM (inactive)
- GI50 [22]: > 100 µM (inactive)
- GI50 [23]: 45.4 µM (inactive)
- GI50 [24]: 61 µM (inactive)
- GI50 [25]: > 100 µM (inactive)
- GI50 [26]: 28.2 µM (inactive)
- GI50 [27]: 53.3 µM (inactive)
- GI50 [28]: 85.1 µM (inactive)
- GI50 [29]: 84.5 µM (inactive)
- GI50 [30]: 56.8 µM (inactive)
- GI50 [31]: 56.2 µM (inactive)
- GI50 [32]: 53.2 µM (inactive)
- GI50 [33]: > 100 µM (inactive)
- GI50 [34]: > 100 µM (inactive)
- GI50 [35]: > 100 µM (inactive)
- GI50 [36]: > 100 µM (inactive)
- GI50 [37]: > 100 µM (inactive)
- GI50 [38]: > 100 µM (inactive)
- GI50 [39]: 41.3 µM (inactive)
- GI50 [40]: > 100 µM (inactive)
- GI50 [41]: > 100 µM
- GI50 [42]: 49.2 µM (inactive)
- GI50 [43]: 32.2 µM (inactive)
- GI50 [44]: > 100 µM (inactive)
- GI50 [45]: 49.8 µM (inactive)
- GI50 [46]: 24.5 µM (inactive)
- GI50 [47]: > 100 µM (inactive)
- GI50 [48]: > 100 µM (inactive)
- GI50 [49]: > 100 µM (inactive)
- GI50 [50]: > 10 µM (inactive)
- GI50 [51]: 91.4 µM (inactive)
- GI50 [52]: > 100 µM (inactive)
- GI50 [53]: 83.9 µM (inactive)

SMILES: NC(=O)C12CCC1C1CCCCC12N1CCOCC1 (stereo unspecified)
- GI50 [1]: > 100 µM (inactive)
- GI50 [2]: > 100 µM (inactive)
- GI50 [3]: > 100 µM (inactive)
- GI50 [4]: > 100 µM (inactive)
- GI50 [5]: > 100 µM (inactive)
- GI50 [6]: > 100 µM (inactive)
- GI50 [7]: > 100 µM (inactive)
- GI50 [8]: > 100 µM (inactive)
- GI50 [9]: > 100 µM (inactive)
- GI50 [10]: > 100 µM (inactive)
- GI50 [11]: > 100 µM (inactive)
- GI50 [12]: > 100 µM (inactive)
- GI50 [54]: > 100 µM (inactive)
- GI50 [13]: > 100 µM (inactive)
- GI50 [15]: > 100 µM (inactive)
- GI50 [16]: > 100 µM (inactive)
- GI50 [17]: > 100 µM (inactive)
- GI50 [55]: > 100 µM (inactive)
- GI50 [56]: > 100 µM (inactive)
- GI50 [18]: > 100 µM (inactive)
- GI50 [19]: > 100 µM (inactive)
- GI50 [20]: > 100 µM (inactive)
- GI50 [21]: > 100 µM (inactive)
- GI50 [22]: > 100 µM (inactive)
- GI50 [23]: > 100 µM (inactive)
- GI50 [24]: > 100 µM (inactive)
- GI50 [25]: > 100 µM (inactive)
- GI50 [26]: > 100 µM (inactive)
- GI50 [27]: > 100 µM (inactive)
- GI50 [28]: > 100 µM (inactive)
- GI50 [30]: > 100 µM (inactive)
- GI50 [31]: > 100 µM (inactive)
- GI50 [32]: > 100 µM (inactive)
- GI50 [33]: > 100 µM (inactive)
- GI50 [57]: > 100 µM (inactive)
- GI50 [34]: > 100 µM (inactive)
- GI50 [35]: > 100 µM (inactive)
- GI50 [36]: > 100 µM (inactive)
- GI50 [37]: > 100 µM (inactive)
- GI50 [38]: > 100 µM (inactive)
- GI50 [39]: > 100 µM (inactive)
- GI50 [40]: > 100 µM (inactive)
- GI50 [41]: > 100 µM
- GI50 [42]: > 100 µM (inactive)
- GI50 [43]: > 100 µM (inactive)
- GI50 [45]: > 100 µM (inactive)
- GI50 [46]: > 100 µM (inactive)
- GI50 [47]: > 100 µM (inactive)
- GI50 [48]: > 100 µM (inactive)
- GI50 [49]: > 100 µM (inactive)
- GI50 [50]: > 100 µM (inactive)
- GI50 [52]: > 100 µM (inactive)
- GI50 [53]: > 100 µM (inactive)
